Values joined by “and” are separate entries in the source; they are usually repeats but may differ in a detail not shown here. Identical values can stand only once.
System: PANC-1 complex spheroid growth, percent test/control
Test: Anticancer human tumor PANC-1 cell line growth inhibition [Asc];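 further: spheroids exposed to agents for 7 days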;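 on viability, T/C: percent viability relative to DMSO vehicle wells taken as 100%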
Settings: for viability, T/C: stronger effect = lower value
Procedure, shortened: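 Complex solid-tumor spheroids incorporating human endothelial and mesenchymal stem cells received single agents or combinations over half-log dilution ranges anchored to clinical Cmax.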

CCN1C(C(=O)NC23CCC(C(=O)O)(CC2)CC3)C(c2cccc(Cl)c2F)C2(C(=O)Nc3cc(Cl)ccc32)C12CCCCC2 (stereo not drawn) + CNC(C)C(=O)NC1CN(S(=O)(=O)c2cccc(S(=O)(=O)N3CCC4CCC(C(=O)NC(c5ccccc5)c5ccccc5)N4C(=O)C(NC(=O)C(C)NC)C3)c2)CCC2CCC(C(=O)NC(c3ccccc3)c3ccccc3)N2C1=O
IC50 (curve of first compound, second compound 0.00316 µM): > 3 µM | IC50 (curve of first compound, second compound 0.01 µM): > 3 µM | IC50 (curve of first compound, second compound 0.0316 µM): > 3 µM | IC50 (curve of first compound, second compound 0.1 µM): > 3 µM | IC50 (curve of first compound, second compound 0.316 µM): > 3 µM | IC50 (curve of first compound, second compound 1 µM): > 3 µM | viability, T/C (second compound 0.00316 µM, first compound 0.00949 µM): 103% | viability, T/C (second compound 0.00316 µM, first compound 0.03 µM): 97.6% | viability, T/C (second compound 0.00316 µM, first compound 0.0949 µM): 101% | viability, T/C (second compound 0.00316 µM, first compound 0.3 µM): 103% | viability, T/C (second compound 0.00316 µM, first compound 0.949 µM): 113% | viability, T/C (second compound 0.00316 µM, first compound 3 µM): 124% | viability, T/C (second compound 0.01 µM, first compound 0.00949 µM): 109% | viability, T/C (second compound 0.01 µM, first compound 0.03 µM): 92.5% | viability, T/C (second compound 0.01 µM, first compound 0.0949 µM): 98.2% | viability, T/C (second compound 0.01 µM, first compound 0.3 µM): 97.2% | viability, T/C (second compound 0.01 µM, first compound 0.949 µM): 106% | viability, T/C (second compound 0.01 µM, first compound 3 µM): 126% | viability, T/C (second compound 0.0316 µM, first compound 0.00949 µM): 97.2% | viability, T/C (second compound 0.0316 µM, first compound 0.03 µM): 99.6% | viability, T/C (second compound 0.0316 µM, first compound 0.0949 µM): 101% | viability, T/C (second compound 0.0316 µM, first compound 0.3 µM): 95.8% | viability, T/C (second compound 0.0316 µM, first compound 0.949 µM): 104% | viability, T/C (second compound 0.0316 µM, first compound 3 µM): 125% | viability, T/C (second compound 0.1 µM, first compound 0.00949 µM): 97.5% | viability, T/C (second compound 0.1 µM, first compound 0.03 µM): 99.3% | viability, T/C (second compound 0.1 µM, first compound 0.0949 µM): 96.7% | viability, T/C (second compound 0.1 µM, first compound 0.3 µM): 109% | viability, T/C (second compound 0.1 µM, first compound 0.949 µM): 105% | viability, T/C (second compound 0.1 µM, first compound 3 µM): 121% | viability, T/C (second compound 0.316 µM, first compound 0.00949 µM): 99.2% | viability, T/C (second compound 0.316 µM, first compound 0.03 µM): 102% | viability, T/C (second compound 0.316 µM, first compound 0.0949 µM): 106% | viability, T/C (second compound 0.316 µM, first compound 0.3 µM): 92.6% | viability, T/C (second compound 0.316 µM, first compound 0.949 µM): 103% | viability, T/C (second compound 0.316 µM, first compound 3 µM): 108% | viability, T/C (second compound 1 µM, first compound 0.00949 µM): 96.9% | viability, T/C (second compound 1 µM, first compound 0.03 µM): 103% | viability, T/C (second compound 1 µM, first compound 0.0949 µM): 98% | viability, T/C (second compound 1 µM, first compound 0.3 µM): 101% | viability, T/C (second compound 1 µM, first compound 0.949 µM): 116% | viability, T/C (second compound 1 µM, first compound 3 µM): 107%

C=CC(=O)N1CCN(c2nc(=O)n(-c3c(C)ccnc3C(C)C)c3nc(-c4c(O)cccc4F)c(F)cc23)C(C)C1 (stereo not drawn) + CCN1C(C(=O)NC23CCC(C(=O)O)(CC2)CC3)C(c2cccc(Cl)c2F)C2(C(=O)Nc3cc(Cl)ccc32)C12CCCCC2
IC50 (curve of first compound, second compound 0.00949 µM): > 10 µM | IC50 (curve of first compound, second compound 0.03 µM): > 10 µM | IC50 (curve of first compound, second compound 0.0949 µM): > 10 µM | IC50 (curve of first compound, second compound 0.3 µM): > 10 µM | IC50 (curve of first compound, second compound 0.949 µM): > 10 µM | IC50 (curve of first compound, second compound 3 µM): > 10 µM | viability, T/C (second compound 0.00949 µM, first compound 0.0316 µM): 98.1% | viability, T/C (second compound 0.00949 µM, first compound 0.1 µM): 96.8% | viability, T/C (second compound 0.00949 µM, first compound 0.316 µM): 86% | viability, T/C (second compound 0.00949 µM, first compound 1 µM): 98.8% | viability, T/C (second compound 0.00949 µM, first compound 3.16 µM): 90.4% | viability, T/C (second compound 0.00949 µM, first compound 10 µM): 96% | viability, T/C (second compound 0.03 µM, first compound 0.0316 µM): 101% | viability, T/C (second compound 0.03 µM, first compound 0.1 µM): 92.5% | viability, T/C (second compound 0.03 µM, first compound 0.316 µM): 100% | viability, T/C (second compound 0.03 µM, first compound 1 µM): 103% | viability, T/C (second compound 0.03 µM, first compound 3.16 µM): 97.8% | viability, T/C (second compound 0.03 µM, first compound 10 µM): 77.5% | viability, T/C (second compound 0.0949 µM, first compound 0.0316 µM): 111% | viability, T/C (second compound 0.0949 µM, first compound 0.1 µM): 101% | viability, T/C (second compound 0.0949 µM, first compound 0.316 µM): 97.5% | viability, T/C (second compound 0.0949 µM, first compound 1 µM): 94% | viability, T/C (second compound 0.0949 µM, first compound 3.16 µM): 95.6% | viability, T/C (second compound 0.0949 µM, first compound 10 µM): 91.2% | viability, T/C (second compound 0.3 µM, first compound 0.0316 µM): 109% | viability, T/C (second compound 0.3 µM, first compound 0.1 µM): 95.3% | viability, T/C (second compound 0.3 µM, first compound 0.316 µM): 106% | viability, T/C (second compound 0.3 µM, first compound 1 µM): 110% | viability, T/C (second compound 0.3 µM, first compound 3.16 µM): 93.6% | viability, T/C (second compound 0.3 µM, first compound 10 µM): 93.2% | viability, T/C (second compound 0.949 µM, first compound 0.0316 µM): 116% | viability, T/C (second compound 0.949 µM, first compound 0.1 µM): 107% | viability, T/C (second compound 0.949 µM, first compound 0.316 µM): 96.4% | viability, T/C (second compound 0.949 µM, first compound 1 µM): 103% | viability, T/C (second compound 0.949 µM, first compound 3.16 µM): 94.7% | viability, T/C (second compound 0.949 µM, first compound 10 µM): 93.1% | viability, T/C (second compound 3 µM, first compound 0.0316 µM): 120% | viability, T/C (second compound 3 µM, first compound 0.1 µM): 115% | viability, T/C (second compound 3 µM, first compound 0.316 µM): 114% | viability, T/C (second compound 3 µM, first compound 1 µM): 121% | viability, T/C (second compound 3 µM, first compound 3.16 µM): 109% | viability, T/C (second compound 3 µM, first compound 10 µM): 102%

Cc1nc(N2CCC3(CC2)COC(C)C3N)c(CO)nc1Sc1ccnc(N)c1Cl (stereo not drawn)
viability, T/C (compound 0.00949 µM): 101% and 93.1% and 109% | viability, T/C (compound 0.03 µM): 83.2% and 88.3% and 85.1% | viability, T/C (compound 0.0949 µM): 102% and 90.2% and 91% | viability, T/C (compound 0.3 µM): 82.2% and 84.3% and 94.8% | viability, T/C (compound 0.949 µM): 91.4% and 83.7% and 86.9% | viability, T/C (compound 3 µM): 87.5% and 86% and 99.3% | IC50 (curve of compound): > 3 µM

O=C(c1cc(Cc2n[nH]c(=O)c3ccccc23)ccc1F)N1CCN(C(=O)C2CC2)CC1
viability, T/C (compound 0.0316 µM): 93.1% and 94.8% and 102% | viability, T/C (compound 0.1 µM): 92.7% and 90.1% and 94.9% | viability, T/C (compound 0.316 µM): 99.7% and 109% and 102% | viability, T/C (compound 1 µM): 101% and 112% and 116% | viability, T/C (compound 3.16 µM): 113% and 107% and 103% | viability, T/C (compound 10 µM): 101% and 95.9% and 103% | IC50 (curve of compound): > 10 µM

— PubChem BioAssay AID1963435 (Molecular Pharmacology Branch, DTP, NCI, 2024)
